Data as given in the NIST ThermoML archive (doi:10.1021/je060271a).
Where “and” joins values, the source holds several entries; their conditions need not be identical. Equal entries are not always repeated. ± gives the expanded uncertainty stated by the source.

Conditions: Liquid, Vibrating tube method

CCCCCC(=O)OCC(COC(=O)CCCCC)(COC(=O)CCCCC)COC(=O)CCCCC [pentaerythritol tetrahexanoate]
Conditions | mass density
323.14 K, 9872.1 kPa | 979.5 ± 1.2 kg/m3
323.14 K, 9877.7 kPa | 979.4 ± 1.2 kg/m3
323.14 K, 9882.8 kPa | 979.5 ± 1.2 kg/m3
323.14 K, 9890.7 kPa | 979.4 ± 1.2 kg/m3
323.14 K, 10279 kPa | 979.8 ± 1.2 kg/m3
323.14 K, 10299 kPa | 979.7 ± 1.2 kg/m3
323.14 K, 10325 kPa | 979.8 ± 1.2 kg/m3
323.14 K, 10354 kPa | 979.8 ± 1.2 kg/m3
323.14 K, 10377 kPa | 979.8 ± 1.2 kg/m3
323.14 K, 10409 kPa | 979.8 ± 1.2 kg/m3
323.14 K, 10437 kPa | 979.7 ± 1.2 kg/m3
323.14 K, 10641 kPa | 980 ± 1.2 kg/m3
323.14 K, 10798 kPa | 980.1 ± 1.2 kg/m3
323.14 K, 10825 kPa | 980 ± 1.2 kg/m3
323.14 K, 10850 kPa | 980 ± 1.2 kg/m3
323.14 K, 10879 kPa | 980.1 ± 1.2 kg/m3
323.14 K, 10908 kPa | 980.2 ± 1.2 kg/m3
323.14 K, 10930 kPa | 980.1 ± 1.2 kg/m3
323.14 K, 11644 kPa | 980.6 ± 1.2 kg/m3
323.14 K, 11671 kPa | 980.7 ± 1.2 kg/m3
323.14 K, 11694 kPa | 980.7 ± 1.2 kg/m3
323.14 K, 11721 kPa | 980.6 ± 1.2 kg/m3
323.14 K, 11748 kPa | 980.6 ± 1.2 kg/m3
323.14 K, 11771 kPa | 980.7 ± 1.2 kg/m3
323.14 K, 11798 kPa | 980.7 ± 1.2 kg/m3
323.14 K, 11821 kPa | 980.9 ± 1.2 kg/m3
323.14 K, 11872 kPa | 980.8 ± 1.2 kg/m3
323.14 K, 13057 kPa | 981.6 ± 1.2 kg/m3
323.14 K, 13085 kPa | 981.6 ± 1.2 kg/m3
323.14 K, 13108 kPa | 981.6 ± 1.2 kg/m3
323.14 K, 13136 kPa | 981.6 ± 1.2 kg/m3
323.14 K, 13163 kPa | 981.7 ± 1.2 kg/m3
323.14 K, 13448 kPa | 981.9 ± 1.2 kg/m3
323.14 K, 13476 kPa | 981.9 ± 1.2 kg/m3
323.14 K, 13500 kPa | 982 ± 1.2 kg/m3
323.14 K, 13529 kPa | 981.8 ± 1.2 kg/m3
323.14 K, 13553 kPa | 981.9 ± 1.2 kg/m3
323.14 K, 13581 kPa | 982 ± 1.2 kg/m3
323.14 K, 13609 kPa | 981.9 ± 1.2 kg/m3
323.14 K, 13633 kPa | 982 ± 1.2 kg/m3
323.14 K, 13661 kPa | 982 ± 1.2 kg/m3
323.14 K, 13684 kPa | 982 ± 1.2 kg/m3
323.14 K, 13711 kPa | 982.1 ± 1.2 kg/m3
323.14 K, 13739 kPa | 982.1 ± 1.2 kg/m3
323.14 K, 13763 kPa | 982 ± 1.2 kg/m3
323.14 K, 13791 kPa | 982.1 ± 1.2 kg/m3
323.14 K, 13814 kPa | 982 ± 1.2 kg/m3
323.14 K, 13841 kPa | 982.2 ± 1.2 kg/m3
323.14 K, 13868 kPa | 982.2 ± 1.2 kg/m3
323.14 K, 14047 kPa | 982.2 ± 1.2 kg/m3
323.14 K, 14070 kPa | 982.3 ± 1.2 kg/m3
323.14 K, 14098 kPa | 982.2 ± 1.2 kg/m3
323.14 K, 14122 kPa | 982.3 ± 1.2 kg/m3
323.14 K, 14149 kPa | 982.4 ± 1.2 kg/m3
323.14 K, 14177 kPa | 982.3 ± 1.2 kg/m3
323.14 K, 14200 kPa | 982.3 ± 1.2 kg/m3
323.14 K, 14229 kPa | 982.4 ± 1.2 kg/m3
323.14 K, 14257 kPa | 982.3 ± 1.2 kg/m3
323.14 K, 14281 kPa | 982.5 ± 1.2 kg/m3
323.14 K, 14309 kPa | 982.5 ± 1.2 kg/m3
323.14 K, 14333 kPa | 982.4 ± 1.2 kg/m3
323.14 K, 14362 kPa | 982.5 ± 1.2 kg/m3
323.14 K, 14385 kPa | 982.3 ± 1.2 kg/m3
323.14 K, 14412 kPa | 982.5 ± 1.2 kg/m3
323.14 K, 14435 kPa | 982.6 ± 1.2 kg/m3
323.14 K, 14462 kPa | 982.5 ± 1.2 kg/m3
323.14 K, 14491 kPa | 982.5 ± 1.2 kg/m3
323.14 K, 14542 kPa | 982.6 ± 1.2 kg/m3
323.14 K, 14860 kPa | 982.8 ± 1.2 kg/m3
323.14 K, 14888 kPa | 982.8 ± 1.2 kg/m3
323.14 K, 14912 kPa | 982.7 ± 1.2 kg/m3
323.14 K, 14941 kPa | 982.8 ± 1.2 kg/m3
323.14 K, 14965 kPa | 982.8 ± 1.2 kg/m3
323.14 K, 14994 kPa | 982.8 ± 1.2 kg/m3
323.14 K, 15019 kPa | 982.8 ± 1.2 kg/m3
323.14 K, 15047 kPa | 982.8 ± 1.2 kg/m3
323.14 K, 15070 kPa | 982.8 ± 1.2 kg/m3
323.14 K, 15098 kPa | 983 ± 1.2 kg/m3
323.14 K, 15126 kPa | 982.9 ± 1.2 kg/m3
323.14 K, 15150 kPa | 982.9 ± 1.2 kg/m3
323.14 K, 15177 kPa | 983.1 ± 1.2 kg/m3
323.14 K, 15205 kPa | 983 ± 1.2 kg/m3
323.14 K, 15229 kPa | 983 ± 1.2 kg/m3
323.14 K, 32387 kPa | 993.4 ± 1.2 kg/m3
323.14 K, 32388 kPa | 993.7 ± 1.2 kg/m3 and 993.6 ± 1.2 kg/m3 and 993.5 ± 1.2 kg/m3
323.14 K, 32389 kPa | 993.5 ± 1.2 kg/m3 and 993.6 ± 1.2 kg/m3
323.14 K, 32390 kPa | 993.5 ± 1.2 kg/m3 and 993.6 ± 1.2 kg/m3
323.14 K, 32391 kPa | 993.5 ± 1.2 kg/m3
323.14 K, 32392 kPa | 993.6 ± 1.2 kg/m3
323.14 K, 32393 kPa | 993.5 ± 1.2 kg/m3
323.14 K, 32394 kPa | 993.5 ± 1.2 kg/m3
323.14 K, 32395 kPa | 993.5 ± 1.2 kg/m3
323.14 K, 32396 kPa | 993.5 ± 1.2 kg/m3 and 993.6 ± 1.2 kg/m3
323.14 K, 32398 kPa | 993.5 ± 1.2 kg/m3
323.14 K, 32399 kPa | 993.5 ± 1.2 kg/m3
323.14 K, 32400 kPa | 993.6 ± 1.2 kg/m3
323.14 K, 32401 kPa | 993.6 ± 1.2 kg/m3
323.14 K, 32402 kPa | 993.4 ± 1.2 kg/m3
323.14 K, 32403 kPa | 993.5 ± 1.2 kg/m3
323.14 K, 32404 kPa | 993.5 ± 1.2 kg/m3
323.15 K, 370.6 kPa | 972.9 ± 1.2 kg/m3
323.15 K, 372.9 kPa | 972.9 ± 1.2 kg/m3
323.15 K, 374.8 kPa | 973 ± 1.2 kg/m3
323.15 K, 377 kPa | 972.9 ± 1.2 kg/m3
323.15 K, 379.5 kPa | 972.9 ± 1.2 kg/m3
323.15 K, 381.7 kPa | 973 ± 1.2 kg/m3
323.15 K, 444.1 kPa | 973 ± 1.2 kg/m3
323.15 K, 447.6 kPa | 973 ± 1.2 kg/m3
323.15 K, 450.5 kPa | 973 ± 1.2 kg/m3
323.15 K, 453.3 kPa | 973 ± 1.2 kg/m3
323.15 K, 456.4 kPa | 973.1 ± 1.2 kg/m3
323.15 K, 460.3 kPa | 973 ± 1.2 kg/m3
323.15 K, 463.4 kPa | 973 ± 1.2 kg/m3
323.15 K, 466.7 kPa | 973 ± 1.2 kg/m3
323.15 K, 470.7 kPa | 973 ± 1.2 kg/m3
323.15 K, 473.8 kPa | 972.9 ± 1.2 kg/m3
323.15 K, 520.2 kPa | 973 ± 1.2 kg/m3
323.15 K, 524.4 kPa | 973.1 ± 1.2 kg/m3
323.15 K, 528.6 kPa | 973.1 ± 1.2 kg/m3
323.15 K, 532.7 kPa | 973 ± 1.2 kg/m3
323.15 K, 536.7 kPa | 973 ± 1.2 kg/m3
323.15 K, 542.1 kPa | 973 ± 1.2 kg/m3
323.15 K, 546.3 kPa | 972.9 ± 1.2 kg/m3
323.15 K, 551.3 kPa | 973.1 ± 1.2 kg/m3
323.15 K, 555.7 kPa | 973.2 ± 1.2 kg/m3
323.15 K, 560.2 kPa | 973.1 ± 1.2 kg/m3
323.15 K, 564.7 kPa | 973 ± 1.2 kg/m3
323.15 K, 567.1 kPa | 973 ± 1.2 kg/m3
323.15 K, 567.3 kPa | 973.1 ± 1.2 kg/m3
323.15 K, 568.2 kPa | 973 ± 1.2 kg/m3
323.15 K, 569.7 kPa | 973.1 ± 1.2 kg/m3
323.15 K, 571.8 kPa | 973.1 ± 1.2 kg/m3
323.15 K, 573.7 kPa | 973.1 ± 1.2 kg/m3
323.15 K, 575.6 kPa | 973.1 ± 1.2 kg/m3
323.15 K, 592.7 kPa | 973.1 ± 1.2 kg/m3
323.15 K, 594.8 kPa | 973.2 ± 1.2 kg/m3
323.15 K, 596.6 kPa | 973.1 ± 1.2 kg/m3
323.15 K, 598.6 kPa | 973.1 ± 1.2 kg/m3
323.15 K, 601.2 kPa | 973 ± 1.2 kg/m3
323.15 K, 603.4 kPa | 973 ± 1.2 kg/m3
323.15 K, 605.2 kPa | 973.1 ± 1.2 kg/m3
323.15 K, 607.4 kPa | 973.1 ± 1.2 kg/m3
323.15 K, 609.9 kPa | 973 ± 1.2 kg/m3
323.15 K, 612 kPa | 973.1 ± 1.2 kg/m3
323.15 K, 614 kPa | 973.1 ± 1.2 kg/m3
